Results taken from US11639506B2, “Recombinant yeast having increased tolerance to ionic liquids and methods of use” (Wisconsin Alumni Research Foundation, priority 2015, dated 2023).
Values joined by “and” are separate entries in the source; they are usually repeats but may differ in a detail not shown here. Equal entries are not always repeated.

Legend:
Y133 ptk2Δ [1] = type: cell-based, S. cerevisiae; settings: relative to Y133, p<0.01
Method: Compounds, initial screening, and IC50 determination: Compounds tested were purchased from Sigma-Aldrich. […] Plates were read on a TECAN M1000 over a 48 hour growth period. […] When presented, IC50 values for growth inhibition were calculated from triplicate 8 point dose curves and SigmaPlot 12.0. When presented, error bars are mean±standard error (S.E.) of at least 3 replicates.

Y133 ptk2Δ [2] = type: cell-based, S. cerevisiae
Description: We deleted PTK2 in our xylose fermenting yeast GLBRCY133 (Parreiras et al.,2014).

[3] = test system: PTK2 deletion mutant in a lab strain background; experiment: Growth inhibition IC50, PTK2 deletion mutant in lab strain; type: cell-based, S. cerevisiae; settings: deletion mutant of PTK2 in the lab strain
Method: Compounds, initial screening, and IC50 determination: Compounds tested were purchased from Sigma-Aldrich. Cells of S. cerevisiae (MATαpdr1Δ::natMXpdr3Δ::KI.URA3 snq2Δ::KI.LEU2 can1Δ::STE2pr-Sp_his5 lyp1Δhis3Δ1 leu2Δ0 ura3Δ0 met15Δ0), referred to as control strain, were grown in 200 μl cultures at 30° C. in YPD, with a drug or DMSO control. Plates were read on a TECAN M1000 over a 48 hour growth period. The specific growth rate was calculated using GCAT analysis software (available at cat3-pub.glbrc.org on the World Wide Web) (Sato et al., 2013). When presented, IC50 values for growth inhibition were calculated from triplicate 8 point dose curves and SigmaPlot 12.0. When presented, error bars are mean±standard error (S.E.) of at least 3 replicates.

[4] = test system: xylose fermenting yeast GLBRCY133; experiment: Growth inhibition IC50, xylose fermenting yeast Y133; type: cell-based, S. cerevisiae; settings: Y133 and Y133 ptk2Δ
[5] = test system: S. cerevisiae deletion mutants; experiment: Chemical genomic profiling of pooled deletion mutants; type: cell-based
Method: FIGS. 1A-B depict chemical genomic profiling of ionic liquids. A genome-wide set of deletion mutants were challenged with a specific compound and grown as a pool for several generations.
(§1) Chemical genomic analysis: Chemical genomic analysis of poacic acid was performed as described as described previously (Fung et al., 2013; Parsons et al., 2006). The tested yeast deletion collection had 4000 strains using the genetic background described in Andrusiak (2012). The optimal inhibitory concentration of poacic acid for chemical genomic profiling (70-80% growth versus solvent control in YP-galactose media after 24 hours of growth) was determined using an 8 point dose curve. A concentration of 88 μg/ml inhibited growth within this range. 200 μl cultures of the pooled, deletion collection of S. cerevisiae deletion mutants were grown with 88 μg/ml poacic acid or a DMSO control in triplicate for 48 hours at 30° C. Genomic DNA was extracted using the Epicentre MasterPure™ Yeast DNA purification kit. Mutant-specific molecular barcodes were amplified with specially designed multiplex primers (Smith et al., 2009). The barcodes were sequenced using an Illumina MiSeq. Three replicates of each condition (poacic acid vs. DMSO) were sequenced. One DMSO control was lost due to poor sequencing reads. The barcode counts for each yeast deletion mutant in the presence of poacic acid were normalized against the DMSO control conditions to define sensitivity or resistance of individual strains. To determine a p-value for each top sensitive and resistant mutant, we used the EdgeR package (Robinson et al., 2014, 2010). A Bonferroni-corrected hypergeometric distribution test was used to search for significant enrichment of GO terms among the top 10 sensitive and resistant deletion mutants (Boyle et al., 2004). To understand the pathways that were most affected by poacic acid we developed a protein complex/pathway score based on the summation of the z-scores for each complex/pathway (Pathway z-score). Correlation of the chemical genomic profile of poacic acid with the yeast genetic interaction network to was done as described in Costanzo et al. (2010).

yeast mitochondria = experiment: SYTO 16 staining of active mitochondria (microscopy); type: cell-based; settings: SYTO 16 stain
Description: We determined that ionic liquids were more toxic to cells grown on glycerol compared to glucose (FIG. 3A). Using microscopy, we explored the effect of ionic liquids on mitochondria. […] Untreated cells had normal mitochondrial morphology, and at higher doses, mitochondria structures in cells disappeared indicating a loss of functional mitochondria. Finally, we used FACS analysis with the stain 3,3-Dioctadecyloxacarbocyanine perchlorate (“DiO”), which has differential fluorescence depending on mitochondrial membrane potential. In the presence of ionic liquids, we observed a fluorescence shift of DiO, indicating reduced mitochondrial membrane potential (FIGS. 3C-D). Valinomycin was used as a positive control. Hydroxyurea and benomyl were included as negative control agents that causes cell death through a mechanism unrelated to the mitochondria.

[6] = test system: yeast overexpressing PMA1 or PTK2; experiment: Tolerance of PMA1 / PTK2 overexpression strains; type: cell-based
[7] = test system: S. cerevisiae deletion mutants; experiment: Chemical genomic profiling of pooled deletion mutants; type: cell-based; settings: listed as EMIM-CI
S. cerevisiae = experiment: Dose curve for chemical genomic profiling concentration; type: cell-based; settings: 88 μg/ml, YP-galactose media, 24 hours
Method: as §1, with “To determine a p-value for each top sensitive and resistant mutant, we used the EdgeR package (Robinson et al., 2014, 2010). A Bonferroni-corrected hypergeometric distribution test was used to search for significant enrichment of GO terms among the top 10 sensitive and resistant deletion mutants (Boyle et al., 2004). To understand the pathways that were most affected by poacic acid we developed a protein complex/pathway score based on the summation of the z-scores for each complex/pathway (Pathway z-score). Correlation of the chemical genomic profile of poacic acid with the yeast genetic interaction network to was done as described in Costanzo et al. (2010).” left out

`CCCCn1cc[n+](C)c1.[Cl-]` [BMIM-Cl, 1-butyl-3-methylimidazolium chloride] was tested, and the “tolerance conferred by deletion of PTK2 in Y133” value (“tolerance conferred by deletion” for short) (Y133 ptk2Δ [1]) was “significantly greater tolerance” and the “tolerance and fermentative capacity of PTK2 deletion” value (Y133 ptk2Δ [2]; 1% BMIM-Cl, aerobic and anaerobic conditions) was “greater tolerance and has greater fermentative capacity”.

`CCn1cc[n+](C)c1.[Cl-]` [EMIM-Cl, 1-ethyl-3-methylimidazolium chloride] was tested, and the resistant to concentration [3] was “over 5%”, the “effects on growth at pH 6.5 versus pH 5.0” value [4] was “much greater” and the “tolerance conferred by deletion” value (Y133 ptk2Δ [1]) was “significantly greater tolerance”. For the same molecule, the “Fold Change” value ([5]; APM3 deletion mutant) was 0.5222, the “Fold Change” value ([5]; ARG2 deletion mutant, listed as EMIM-CI) was 0.1706 and the “Fold Change” value ([5]; ARX1 deletion mutant) was 1.688. For the same molecule, the “Fold Change” value ([5]; AVT3 deletion mutant) was 1.575, the “Fold Change” value ([5]; AVT5 deletion mutant) was 1.933 and the “Fold Change” value ([5]; BAP2 deletion mutant) was 1.689. The “Fold Change” value ([5]; BNI4 deletion mutant) was 1.665, the “Fold Change” value ([5]; BUD8 deletion mutant) was 0.6034 and the “Fold Change” value ([5]; CAT5 deletion mutant) was 0.4405. The “Fold Change” value ([5]; CTF4 deletion mutant) was 2.67, the “Fold Change” value ([5]; DAN1 deletion mutant) was 0.5786 and the “Fold Change” value ([5]; DBF2 deletion mutant) was 1.927. For the same molecule, the “Fold Change” value ([5]; DBP3 deletion mutant) was 1.709, the “Fold Change” value ([5]; DEP1 deletion mutant) was 2.106 and the “Fold Change” value ([5]; DIA2 deletion mutant) was 2.886. The “Fold Change” value ([5]; DOA1 deletion mutant) was 1.661, the “Fold Change” value ([5]; DPB3 deletion mutant) was 1.946 and the “Fold Change” value ([5]; ERF2 deletion mutant) was 1.477. The “Fold Change” value ([5]; GAL1 deletion mutant) was 0.1962, the “Fold Change” value ([5]; GAL1 deletion mutant, listed as EMIM-CI) was 0.1962 and the “Fold Change” value ([5]; GRX2 deletion mutant) was 0.3394. For the same molecule, the “Fold Change” value ([5]; HIR2 deletion mutant) was 0.4587, the “Fold Change” value ([5]; HMI1 deletion mutant) was 0.1939 and the “Fold Change” value ([5]; IRA2 deletion mutant) was 0.4076. The “Fold Change” value ([5]; IST3 deletion mutant) was 1.899, the “Fold Change” value ([5]; LIA1 deletion mutant) was 1.621 and the “Fold Change” value ([5]; LYS2 deletion mutant) was 0.4622. The “Fold Change” value ([5]; LYS5 deletion mutant) was 0.1821, the “Fold Change” value ([5]; LYS14 deletion mutant) was 0.3984 and the “Fold Change” value ([5]; MCT1 deletion mutant) was 0.1576. For the same molecule, the “Fold Change” value ([5]; MEI4 deletion mutant) was 1.592, the “Fold Change” value ([5]; MF(ALPHA)2 deletion mutant) was 0.6154 and the “Fold Change” value ([5]; NMD2 deletion mutant) was 1.614. For the same molecule, the “Fold Change” value ([5]; OLA1 deletion mutant) was 1.645, the “Fold Change” value ([5]; PEX32 deletion mutant) was 2.103 and the “Fold Change” value ([5]; PMT1 deletion mutant) was 1.712. The “Fold Change” value ([5]; PPM1 deletion mutant) was 0.3444, the “Fold Change” value ([5]; PTK2 deletion mutant) was 12 and the “Fold Change” value ([5]; PUF4 deletion mutant) was 0.1863. The “Fold Change” value ([5]; PUF4 deletion mutant, listed as EMIM-CI) was 0.1863, the “Fold Change” value ([5]; PUF6 deletion mutant) was 1.748 and the “Fold Change” value ([5]; QCR2 deletion mutant, listed as EMIM-CI) was 0.195. The “Fold Change” value ([5]; RCR1 deletion mutant) was 0.4508, the “Fold Change” value ([5]; REI1 deletion mutant) was 2.168 and the “Fold Change” value ([5]; RHO2 deletion mutant) was 1.785. The “Fold Change” value ([5]; RIM1 deletion mutant, listed as EMIM-CI) was 0.1974, the “Fold Change” value ([5]; RNP1 deletion mutant) was 1.495 and the “Fold Change” value ([5]; ROM2 deletion mutant) was 2.198. The “Fold Change” value ([5]; RPL11B deletion mutant) was 1.725, the “Fold Change” value ([5]; RPL19A deletion mutant) was 1.875 and the “Fold Change” value ([5]; RPL19B deletion mutant) was 1.56. The “Fold Change” value ([5]; RPL24B deletion mutant) was 2.086, the “Fold Change” value ([5]; RPS10A deletion mutant) was 2.351 and the “Fold Change” value ([5]; RPS18B deletion mutant) was 1.743. For the same molecule, the “Fold Change” value ([5]; RPS28B deletion mutant) was 2.088, the “Fold Change” value ([5]; RRI1 deletion mutant) was 0.6151 and the “Fold Change” value ([5]; SAP155 deletion mutant) was 1.704. The “Fold Change” value ([5]; SAP185 deletion mutant) was 0.649, the “Fold Change” value ([5]; SAY1 deletion mutant) was 1.592 and the “Fold Change” value ([5]; SHE9 deletion mutant) was 0.2014. For the same molecule, the “Fold Change” value ([5]; SIN3 deletion mutant) was 2.02, the “Fold Change” value ([5]; SKY1 deletion mutant) was 4.5 and 4.547 and the “Fold Change” value ([5]; SPS4 deletion mutant) was 0.5658. For the same molecule, the “Fold Change” value ([5]; SSK2 deletion mutant) was 1.579, the “Fold Change” value ([5]; SUR4 deletion mutant) was 2.535 and the “Fold Change” value ([5]; SVL3 deletion mutant) was 0.3847. The “Fold Change” value ([5]; SWI6 deletion mutant) was 1.902, the “Fold Change” value ([5]; TOP1 deletion mutant) was 1.759 and the “Fold Change” value ([5]; TRP2 deletion mutant) was 1.685. The “Fold Change” value ([5]; TSR2 deletion mutant) was 1.94, the “Fold Change” value ([5]; TYE7 deletion mutant) was 0.4859 and the “Fold Change” value ([5]; UBC4 deletion mutant) was 1.541. The “Fold Change” value ([5]; UBP14 deletion mutant) was 1.534, the “Fold Change” value ([5]; UPF3 deletion mutant) was 1.61 and the “Fold Change” value ([5]; VPS38 deletion mutant) was 1.666. For the same molecule, the “Fold Change” value ([5]; YBR090C deletion mutant) was 0.5882, the “Fold Change” value ([5]; YDL118W deletion mutant) was 1.522 and the “Fold Change” value ([5]; YDL172C deletion mutant) was 1.636. For the same molecule, the “Fold Change” value ([5]; YGR237C deletion mutant) was 0.5496, the “Fold Change” value ([5]; YHB1 deletion mutant) was 0.5611 and the “Fold Change” value ([5]; YIH1 deletion mutant) was 1.762. The “Fold Change” value ([5]; YIL141W deletion mutant) was 1.524, the “Fold Change” value ([5]; YIR044C deletion mutant) was 0.5723 and the “Fold Change” value ([5]; YLR194C deletion mutant) was 0.5909. The “Fold Change” value ([5]; YLR279W deletion mutant) was 0.5779, the “Fold Change” value ([5]; YLR434C deletion mutant) was 1.5 and the “Fold Change” value ([5]; YMR193C-A deletion mutant) was 1.867. The “Fold Change” value ([5]; YOL162W deletion mutant) was 0.5537, the “Fold Change” value ([5]; YPL205C deletion mutant) was 1.523 and the “Fold Change” value ([5]; YPR130C deletion mutant) was 0.5263. For the same molecule, the “Fold Change” value ([5]; YPS7 deletion mutant) was 1.508, the “Fold Change” value ([5]; YPT7 deletion mutant) was 0.1584 and the “Fold Change” value ([5]; YPT7 deletion mutant, listed as EMIM-CI) was 0.1584. For the same molecule, the “Fold Change” value ([5]; YSP2 deletion mutant) was 1.618, the “Fold Change” value ([5]; ZDS1 deletion mutant) was 0.6026 and the “effect on staining of active mitochondria” value (yeast mitochondria) was “dose-dependent effect”. The “EMIM-Cl tolerance on increased expression of PMA1” value ([6]; PMA1 overexpression, p<0.01) was “significant decrease”, the “EMIM-Cl tolerance on overexpression of PTK2” value ([6]; PTK2 overexpression) was “reduced EMIM-Cl tolerance, but not significantly” and the “sugar conversion (glucose and xylose) and ethanol production of PTK2 mutant” value (Y133 ptk2Δ [2]; in the presence of 1% EMIM-Cl, versus Y133) was “significantly improved”. The “Fold Change” value ([7]; HMI1 deletion mutant) was 0.1939, the “Fold Change” value ([7]; LYS5 deletion mutant) was 0.1821 and the “Fold Change” value ([7]; MCT1 deletion mutant) was 0.1576. For the same molecule, the “Fold Change” value ([7]; SHE9 deletion mutant) was 0.2014.

For poacic acid, the “growth versus solvent control” value (S. cerevisiae) was 70-80%.

For `CC(=O)[O-].CCn1cc[n+](C)c1` [EMIM-Ac, 1-ethyl-3-methylimidazolium acetate], the “tolerance conferred by deletion” value (Y133 ptk2Δ [1]) was “significantly greater tolerance”.
